Laboratory results taken from patent US6928770B2, “Alternating layer non-edible foraging matrix configurations for crawling arthropods” (priority 1999, dated 2005).
Where “and” joins values, the source holds several entries; their conditions need not be identical. Equal values may be shown once. Read-outs that look alike come from different tables or passages of the source.

Columns and labels:
Type in all cases: in vivo
[1] = test system: termites (Reticulitermes flavipes (Kollar)); test: First experiment: test arena with three monitors, treated non-edible foraging matrix disc in one monitor
Excerpt: (§1) Data from two sets of experiments are included. In the first set of experiments, a total of 3,000 termites were used (2,970 workers and 30 soldiers) in all three replicates. In the second set of experiments, 3,000 termites were used in 4 replicates and 1,400 termites (1,386 workers and 14 soldiers) were used in two replicates for a total of six replicates. Fewer termites from 2 colonies were used because we could not collect enough to complete the replicates if a total of 3000 termites were used. The termites (Reticulitermes flavipes (Kollar)) were field collected from field colonies, separated from debris, and held in the laboratory at the USDA (United States Department of Agriculture) for no more than 14 days before introduction into a test arena for each experimental block. Termites from a different colony were used for each replicate.
(§2) The test arena consisted of Plexiglas sides (45 cm long, by 30 cm wide by 5.5 cm high) taped to a glass bottom (45 cm long, by 30 cm wide, by 0.6 cm high) with clear packing tape, manufactured by Crystal Clear, Manco Inc., Avon, Ohio. The Plexiglas sides were assembled by joining pieces with methylene chloride. Before the Plexiglas sides were taped to the glass bottom, the sides were baked in an oven at 40+/−2° C. for 24 hours to ensure that any volatiles caused by the methylene chloride were removed.
(§3) Builders sand from Unified Classification SP, O'Steen Bros., Inc., of Gainesville, Fla., was oven dried at 60+/−2° C. for at least 24 hours in metal pans. The sand was cooled and sieved using a sieve manufactured from Fisher Scientific Co., USA sieve no. 25, having openings of approximately 0.0278 inches each. The sieve was used to remove large pieces of debris. Two thousand five hundred grams (+/−1 g) of sand were poured into the arena and mixed thoroughly with 250 ml of double filtered, de-ionized water, which brought the moisture content of the sand to 10%. The sand was tamped and leveled.
(§4) Three monitoring stations were placed on top of the moistened builder's sand. The monitors were made of one roll of corrugated cardboard (100 cm by 6.5 cm) that was moistened and stacked into a white PVC coupler having an inner diameter of approximately 7 cm and being approximately 7.3 cm high, manufactured from Lasco of Brownsville, Tenn.
(§5) The non-edible foraging matrix treated with toxicant and used for the testing was a loamy, siliceous, thermic, arenic paleudults soil, which was a common sandy loam native soil from Central Florida. This native soil was initially oven dried at 150+/−2° C. for at least 24 hours, then cooled, then sifted to remove large pieces of organic debris. After treatment with a toxicant, the treated non-edible foraging matrix was formed into a disc for insertion into the monitors after termite activity occurred. The color contrast between the builder's sand, which was light honey color, and the native non-edible foraging matrix, which was a dark brown, was enough to see termites move portions of the treated soil particles from the discs into the tunnels.
In both sets of experiments, three different non-edible foraging matrix treatment applications were prepared using novel selected amounts of termite treatment chemicals. The difference between the first experiment and the second experiment was the rates used. […] The second application had the non-edible foraging matrix sample treated with 250 ppm of chlorfenapyr, a version entitled Phantom from American Cyanamid of Princeton, N.J. A third application had the non-edible foraging matrix treated with 125 ppm of fipronil, a version entitled Termidor, from Rhone-Poulenc of Research Triangle, N.C.
In both experimental set ups, controls were treated with filtered and de-ionized water. The treated non-edible foraging matrix was air dried for 7 days and stored in sealed plastic bags until ready for use. […]

[2] = test system: termites (Reticulitermes flavipes (Kollar)); test: Second experiment: test arena with treated foraging matrix disc at lower rates, termite survival in arenas; settings: for Time for cessation of termite activity: second experiment, activity in the monitors not detected
Excerpt: as §1, §2, §3, §4, §5
The second application had the non-edible foraging matrix sample treated with 2.5 and 25.0 ppm of chlofenapyr, a version entitled Phantom from American Cyanamid of Princeton, N.J. A third application had the non-edible foraging matrix treated with 1.25 and 12.5 ppm of fipronil, a version entitled Termidor, from Rhone-Poulenc of Research Triangle, N.C. It is important to note that the rates used were approximately 10 and 100 times less than the rates use in the first experiment and are also 10 to 100 times less than the rates listed or proposed on the pesticide labels. Thus, the rates used in this experiment was not used for the intended purpose of the chemicals, which was to immediately kill the termites by creating a chemical barrier completely around the structure.
In both experimental set ups, controls were treated with filtered and de-ionized water. […]

subterranean termites [3] = settings: embodiment 2
Experimental: In the first experiment for embodiment two, oven dried Alachua fine soil was treated with approximately 125.0 ppm chlorfenapyr as the non-edible foraging matrix 550. The mixture 550 was poured into the opening 542 and wet to a moisture level of 10%. The amount of mixture 550 added to opening 542 was recorded for each replicate. Circular plastic containers having a diameter of approximately 11.5 cm by approximately 10 cm thick were filled with approximately 514 g of builder's sand and wet to a moisture level of approximately 10%. Embodiment 2 was inserted into the builder's sand in the plastic cup, 500 subterranean termites were added and the termites were allowed to tunnel for 3 weeks. After 3 weeks, the plastic container setup was disassembled. The number of live termites in the experimental unit was recorded. The amount of mixture 550 displaced from embodiment 2 was measured and recorded. Data were analyzed with a comparison test, between an untreated control sample and four replications(experimental units) of chlorfenatyr(slow acting toxicant).
Alive refers to number of termites alive after three(3) weeks exposure. %Mortality refers to percentage of termites that died after three(3) weeks exposure. Soil Moved(g) refers to total amount soil removed by the termites per each replication(per experimental unit). […] An average of 99.95% of the termites in treated units died, compared with 8.8% mortality in the control unit. […] Total untreated mixture 550 moved from embodiment 2 to the surrounding area was approximately 3.93 g, compared with an average of approximately 1.49 g of mixture 550 treated with approximately 125.0 ppm chlorfenapyr.
(§6) In the second experiment, mixture 550 was tested at a concentration of approximately 12.5 ppm chlorfenapyr. Experimental procedure was identical to what is listed above.

subterranean termites [4] = settings: embodiment 3
Experimental: In the first experiment for embodiment 3, oven dried Alachua fine soil was treated with approximately 125.0 ppm chlorfenapyr as the non-edible foraging matrix 550. The mixture 550 was poured into the opening 542 and wet to a moisture level of 10%. The amount of mixture 550 added to opening 542 was recorded for each replicate. Plastic containers (approximately 11.5 cm diameter, approximately 10 cm high) were filled with approximately 514 g of builder's sand and wet to a moisture level of approximately 10%. Embodiment 3 was assembled and inserted into the builder's sand in the plastic cup, 500 subterranean termites were added and the termites were allowed to tunnel for 3 weeks. After 3 weeks, the plastic container setup was disassembled. The number of live termites in the experimental unit was recorded. The amount of mixture 550 displaced from embodiment 2 was measured and recorded.
Alive refers to number of termites alive after three(3) weeks exposure. %Mortality refers to percentage of termites that died after three(3) weeks exposure. Soil Moved(g) refers to total amount soil removed by the termites per each replication(per experimental unit).
as §6

[5] = approximately 12.5 ppm chlorfenapyr
[6] = approximately 125.0 ppm chlorfenapyr

Compound: N#Cc1nn(-c2c(Cl)cc(C(F)(F)F)cc2Cl)c(N)c1[S+]([O-])C(F)(F)F (stereo not drawn) [Fipronil, fipronil]
- Mean ± SE number of termites in monitors ([1]; foraging matrix 125 ppm fipronil, week 1): 73.8 ± 11.1
- Mean ± SE number of termites in monitors ([1]; foraging matrix 125 ppm fipronil, week 2): 44.3 ± 18.8
- Mean ± SE number of termites in monitors ([1]; foraging matrix 125 ppm fipronil, week 3): 14.6 ± 8.0
- Mean ± SE number of termites in monitors ([1]; foraging matrix 125 ppm fipronil, week 4): 6.4 ± 3.4
- Mean ± SE number of termites in monitors ([1]; foraging matrix 125 ppm fipronil, week 5): 2.6 ± 1.6
- Mean ± SE number of termites in monitors ([1]; foraging matrix 125 ppm fipronil, week 6): 0.3 ± 0.3
- Mean ± SE number of termites in monitors ([1]; foraging matrix 125 ppm fipronil, week 7): 0 ± 0
- Mean ± SE number of termites in monitors ([1]; foraging matrix 125 ppm fipronil, week 8): 0 ± 0
- Mean ± SE percent survival of termites ([2]; fipronil 1.25 ppm foraging matrix, after 5 weeks): 0.51 ± 0.30b %
- percent survival ([2]; fipronil 12.5 and 1.25 ppm foraging matrix, 39% in untreated arenas): 0.3-0.5%
- Mean ± SE percent survival of termites ([2]; fipronil 12.5 ppm foraging matrix, after 5 weeks): 0.30 ± 0.29b %
- Termite kill (in words) ([2]; fipronil at 1.25 and 12.5 ppm): killed virtually all the termites
- Time for cessation of termite activity [2]: 5 weeks

Compound: O=[N+]([O-])NC1=NCCN1Cc1ccc(Cl)nc1 [Imidacloprid, imidacloprid]
- Termites in the monitors ([1]; 50 ppm imidacloprid, first experiment, summary of Table 1): 54 termites
- Mean ± SE number of termites in monitors ([1]; foraging matrix 50 ppm imidacloprid, week 1): 82.0 ± 2.7
- Mean ± SE number of termites in monitors ([1]; foraging matrix 50 ppm imidacloprid, week 2): 67.5 ± 0.1
- Mean ± SE number of termites in monitors ([1]; foraging matrix 50 ppm imidacloprid, week 3): 45.7 ± 14.9
- Mean ± SE number of termites in monitors ([1]; foraging matrix 50 ppm imidacloprid, week 4): 13.7 ± 2.9
- Mean ± SE number of termites in monitors ([1]; foraging matrix 50 ppm imidacloprid, week 5): 8.0 ± 3.7
- Mean ± SE number of termites in monitors ([1]; foraging matrix 50 ppm imidacloprid, week 6): 3.2 ± 3.0
- Mean ± SE number of termites in monitors ([1]; foraging matrix 50 ppm imidacloprid, week 7): 1.4 ± 1.4
- Mean ± SE number of termites in monitors ([1]; foraging matrix 50 ppm imidacloprid, week 8): 1.8 ± 0.9
- percent survival ([2]; imidacloprid 0.5 and 5.0 ppm foraging matrix, 23% in untreated arenas): 17%
- Mean ± SE percent survival of termites ([2]; imidacloprid 0.5 ppm foraging matrix, after 8 weeks): 17.13 ± 11.61a %
- Mean ± SE percent survival of termites ([2]; imidacloprid 5.0 ppm foraging matrix, after 8 weeks): 17.57 ± 9.36a %
- Time for cessation of termite activity [2]: 8 weeks

Compound: CCOCn1c(-c2ccc(Cl)cc2)c(C#N)c(Br)c1C(F)(F)F [Chlorfenapyr, chlorfenapyr]
- Amount of mixture 550 moved, treated compared with untreated (subterranean termites [3]; [5]): no significant difference
- Mortality compared with untreated replications (subterranean termites [3]; [5]): significantly higher
- Average percentage of termites in treated units that died (subterranean termites [3]; approximately 12.5 ppm chlorfenapyr, approximately 13.2% in untreated control units): approximately 85.3%
- Amount of mixture 550 moved, treated compared with untreated (subterranean termites [3]; [6]): significantly more of the untreated mixture 550 was moved
- Mortality compared with untreated replications (subterranean termites [3]; [6]): significantly higher
- Average percentage of termites in treated units that died (subterranean termites [3]; approximately 125.0 ppm chlorfenapyr, 3 weeks, 8.8% in control unit): 99.95%
- % Mortality (subterranean termites [3]; approximately 125.0 ppm chlorfenapyr, after 3 weeks exposure, per replication): 100.0% and 99.8%
- Amount of mixture 550 moved, 12.5 ppm compared with 125.0 ppm (subterranean termites [3]; chlorfenapyr 12.5 ppm vs 125.0 ppm): significantly more mixture 550 treated at 12.5 ppm was moved
- Mortality, approximately 125 ppm compared with approximately 12.5 ppm (subterranean termites [3]; chlorfenapyr 125 ppm vs 12.5 ppm): no significant differences
- Mean ± SE number of termites in monitors ([1]; foraging matrix 250 ppm chlorfenapyr, week 1): 100 ± 11.9
- Mean ± SE number of termites in monitors ([1]; foraging matrix 250 ppm chlorfenapyr, week 2): 60.7 ± 12.9
- Mean ± SE number of termites in monitors ([1]; foraging matrix 250 ppm chlorfenapyr, week 3): 21.3 ± 12.2
- Mean ± SE number of termites in monitors ([1]; foraging matrix 250 ppm chlorfenapyr, week 4): 10.9 ± 7.6
- Mean ± SE number of termites in monitors ([1]; foraging matrix 250 ppm chlorfenapyr, week 5): 3.5 ± 3.3
- Mean ± SE number of termites in monitors ([1]; foraging matrix 250 ppm chlorfenapyr, week 6): 0.8 ± 0.8
- Mean ± SE number of termites in monitors ([1]; foraging matrix 250 ppm chlorfenapyr, week 7): 0 ± 0
- Mean ± SE number of termites in monitors ([1]; foraging matrix 250 ppm chlorfenapyr, week 8): 0 ± 0
- Mean ± SE percent survival of termites ([2]; chlorfenapyr 2.5 ppm foraging matrix, after 8 weeks): 9.33 ± 5.05a^1%
- Mean ± SE percent survival of termites ([2]; chlorfenapyr 2.5 ppm foraging matrix, after 8 weeks, listed as chlorfenapyr): 9.33%
- Mean ± SE percent survival of termites ([2]; chlorfenapyr 25.0 ppm foraging matrix, after 8 weeks): 0.16 ± 0.16b %
- Mean ± SE percent survival of termites ([2]; chlorfenapyr 25.0 ppm foraging matrix, after 8 weeks, listed as chlorfenapyr): 0.16%
- Termite kill (in words) ([2]; chlorfenapyr at 25 ppm): killed virtually all the termites
- Time for cessation of termite activity [2]: 8 weeks
- Alive (number of termites alive) (subterranean termites [4]; 125.0 ppm chlorfenapyr, 500 termites, after 3 weeks exposure, per replication): 0
- % Mortality (subterranean termites [4]; 125.0 ppm chlorfenapyr, after 3 weeks exposure, per replication): 100.0%
- Amount of mixture 550 moved, treated compared with untreated (subterranean termites [4]; [5]): significantly less treated mixture 550 moved
- Mortality compared with untreated controls (subterranean termites [4]; [5]): no significant difference
- % Mortality (subterranean termites [4]; approximately 12.5 ppm chlorfenapyr, after 3 weeks exposure, per replication): 100%
- Average percentage of termites in treated units that died (subterranean termites [4]; approximately 12.5 ppm chlorfenapyr, approximately 18.5% in untreated control units): approximately 37.7%
- Amount of mixture 550 moved, treated compared with untreated (subterranean termites [4]; [6]): significantly more of the untreated mixture 550 was moved
- Average percentage of termites in treated units that died (subterranean termites [4]; approximately 125.0 ppm chlorfenapyr, approximately 9.6% in control unit): 100.0%
